The subject of this assay is CD2F1 mice, intracerebral L1210 leukemia, survival T/C. As to the kind of experiment: NCI In Vivo Anticancer Drug Screen. Data for tumor model L1210 Leukemia (intracerebral) in CD2F1 (CDF1) mice. As to conditions: higher = longer survival. The procedure:
The antitumor activity of compounds was measured in mice bearing transplantable tumors. Survival or tumor size were measured and the results are expressed as the measurement made in the treated group (T) divided by the measurement made in the vehicle treated control group (C). The tumor model used in this assay is L1210 Leukemia (intracerebral) in CD2F1 (CDF1) mice

[1] abbreviates: endpoint: median survival time, dose: 8.0 mg/kg/injection, schedule: Q01DX005 (ip), vehicle: saline + alcohol.
Where [2] appears, read: endpoint: median survival time, dose: 16.0 mg/kg/injection, schedule: Q01DX005 (ip), vehicle: saline + alcohol.
Setting [3] is: endpoint: median survival time, dose: 32.0 mg/kg/injection, schedule: Q01DX005 (ip), vehicle: saline + alcohol.
Where [4] appears, read: endpoint: median survival time, dose: 64.0 mg/kg/injection, schedule: Q01DX005 (ip), vehicle: saline + alcohol.
Setting [5] is: endpoint: median survival time, dose: 64.0 mg/kg/injection, schedule: Q01DX005 (ip), vehicle: saline with Tween-80.
[6] abbreviates: endpoint: median survival time, dose: 128.0 mg/kg/injection, schedule: Q01DX005 (ip), vehicle: saline with Tween-80.
Where [7] appears, read: endpoint: median survival time, dose: 0.5 mg/kg/injection, schedule: Q01DX009 (ip), vehicle: saline.
The mark [8] stands for this setting: endpoint: median survival time, dose: 1.0 mg/kg/injection, schedule: Q01DX009 (ip), vehicle: saline.
Setting [9] is: endpoint: median survival time, dose: 2.0 mg/kg/injection, schedule: Q01DX009 (ip), vehicle: saline.
Setting [10] is: endpoint: median survival time, dose: 4.0 mg/kg/injection, schedule: Q01DX009 (ip), vehicle: saline.
[11] abbreviates: endpoint: median survival time, dose: 8.0 mg/kg/injection, schedule: Q01DX009 (ip), vehicle: saline.

Several values for one entry are separate records, joined by “and”; a condition that tells them apart may be missing. Equal values may be shown once. Inconclusive results and toxic doses are left out.

For the compound `O=c1n(CC2CO2)c(=O)n(CC2CO2)c(=O)n1CC1CO1` (stereo not given), the T/C was 123 % of control (endpoint: median survival time, dose: 16.4 mg/kg/injection, schedule: Q01DX009 (ip), vehicle: saline); 115 % of control (endpoint: median survival time, dose: 20.5 mg/kg/injection, schedule: Q01DX009 (ip), vehicle: saline); 152 % of control (endpoint: median survival time, dose: 40.0 mg/kg/injection, schedule: Q01DX009 (ip), vehicle: saline); 114 % of control (endpoint: median survival time, dose: 49.2 mg/kg/injection, schedule: Q01DX001 (ip), vehicle: saline); 110 % of control and 116 % of control (endpoint: median survival time, dose: 50.0 mg/kg/injection, schedule: Q01DX009 (ip), vehicle: saline); 114 % of control (endpoint: median survival time, dose: 61.4 mg/kg/injection, schedule: Q01DX001 (ip), vehicle: saline). Also, the T/C (endpoint: median survival time, dose: 70.0 mg/kg/injection, schedule: Q01DX009 (ip), vehicle: saline) was 109 % of control; the T/C (endpoint: median survival time, dose: 76.8 mg/kg/injection, schedule: Q01DX001 (ip), vehicle: saline) is 116 % of control; the T/C (endpoint: median survival time, dose: 80.0 mg/kg/injection, schedule: Q01DX009 (ip), vehicle: saline) is 107 % of control; the T/C (endpoint: median survival time, dose: 90.0 mg/kg/injection, schedule: Q01DX009 (ip), vehicle: saline) was 119 % of control; the T/C (endpoint: median survival time, dose: 180.0 mg/kg/injection, schedule: Q01DX009 (ip), vehicle: saline) was 117 % of control.
Take `CN(C)N=Nc1ccccc1Cl`: the T/C by setting is: under setting [1], 98 % of control; under setting [2], 106 % of control; under setting [3], 102 % of control; under setting [4], 102 % of control; (endpoint: median survival time, dose: 128.0 mg/kg/injection, schedule: Q01DX005 (ip), vehicle: saline + alcohol) 105 % of control.
On to `C#CCN(C)/N=N/c1nc[nH]c1C(N)=O`, for which the T/C runs as follows: (endpoint: median survival time, dose: 16.0 mg/kg/injection, schedule: Q01DX005 (ip), vehicle: saline with Tween-80) 118 % of control; under setting [5], 124 % of control; under setting [6], 120 % of control.
Consider `COc1cc(C[C@H]2c3cc(OC)c(OC)cc3CCN2C)c(Oc2cc3c(cc2OC)-c2c(OC)c(OC)cc4c2[C@H](C3)N(C)CC4)cc1OC`, for which the T/C was 97 % of control (endpoint: median survival time, dose: 50.0 mg/kg/injection, schedule: Q01DX005 (ip), vehicle: Klucel (hydroxypropylcellulose) (HPC)); 102 % of control (endpoint: median survival time, dose: 100.0 mg/kg/injection, schedule: Q01DX005 (ip), vehicle: Klucel (hydroxypropylcellulose) (HPC)); 94 % of control (endpoint: median survival time, dose: 200.0 mg/kg/injection, schedule: Q01DX005 (ip), vehicle: Klucel (hydroxypropylcellulose) (HPC)).
Regarding `C[C@@H]1C[C@@H]([C@H](O)CC2CC(=O)NC(=O)C2)C(=O)[C@@H](C)C1`, the T/C was 114 % of control (endpoint: mean survival time, dose: 10.0 mg/kg/injection, schedule: Q01DX009 (ip), vehicle: saline); 101 % of control (endpoint: mean survival time, dose: 20.0 mg/kg/injection, schedule: Q01DX009 (ip), vehicle: saline); 114 % of control (endpoint: mean survival time, dose: 40.0 mg/kg/injection, schedule: Q01DX009 (ip), vehicle: saline); 106 % of control (endpoint: mean survival time, dose: 80.0 mg/kg/injection, schedule: Q01DX009 (ip), vehicle: saline).
Regarding `Nc1nc(=S)c2ncn(C3CC(O)C(CO)O3)c2[nH]1` (stereo not given), the T/C reads like this: (endpoint: mean survival time, dose: 2.5 mg/kg/injection, schedule: Q01DX001 (ip), vehicle: steriod suspending solution) 114 % of control; (endpoint: mean survival time, dose: 10.0 mg/kg/injection, schedule: Q01DX001 (ip), vehicle: steriod suspending solution) 118 % of control; (endpoint: mean survival time, dose: 20.0 mg/kg/injection, schedule: Q01DX001 (ip), vehicle: steriod suspending solution) 120 % of control.
As for `CN(C)N=Nc1ccccc1C(=O)O`, the T/C is 103 % of control (endpoint: mean survival time, dose: 5.0 mg/kg/injection, schedule: Q01DX007 (ip), vehicle: other); 109 % of control (endpoint: mean survival time, dose: 10.0 mg/kg/injection, schedule: Q01DX007 (ip), vehicle: other); 112 % of control (endpoint: mean survival time, dose: 20.0 mg/kg/injection, schedule: Q01DX007 (ip), vehicle: other); 101 % of control (endpoint: mean survival time, dose: 40.0 mg/kg/injection, schedule: Q01DX007 (ip), vehicle: other); 105 % of control (endpoint: median survival time, dose: 4.0 mg/kg/injection, schedule: Q01DX005 (ip), vehicle: saline + alcohol); 102 % of control under setting [1]. In addition, the T/C runs as follows: under setting [2], 105 % of control; under setting [3], 108 % of control; under setting [4], 97 % of control.
As for `CN(Cc1cnc2nc(N)nc(N)c2n1)c1ccc(C(=O)N[C@@H](CCC(=O)O)C(=O)O)cc1`, the T/C is, setting by setting: (endpoint: median survival time, dose: 1.2 mg/kg/injection, schedule: Q04DX003 (ip), vehicle: saline) 114 % of control; (endpoint: median survival time, dose: 2.3 mg/kg/injection, schedule: Q04DX003 (ip), vehicle: saline) 121 % of control; (endpoint: median survival time, dose: 18.4 mg/kg/injection, schedule: Q04DX003 (ip), vehicle: saline) 164 % of control; (endpoint: median survival time, dose: 36.8 mg/kg/injection, schedule: Q04DX003 (ip), vehicle: saline) 164 % of control.
Take `CN(CO)c1nc(N(C)CO)nc(N(C)CO)n1`: the T/C is, setting by setting: (endpoint: median survival time, dose: 3.12 mg/kg/injection, schedule: Q01DX009 (ip), vehicle: saline with Tween-80) 101 % of control; (endpoint: median survival time, dose: 6.25 mg/kg/injection, schedule: Q01DX009 (ip), vehicle: saline with Tween-80) 96 % of control; (endpoint: median survival time, dose: 12.5 mg/kg/injection, schedule: Q01DX009 (ip), vehicle: saline with Tween-80) 100 % of control; (endpoint: median survival time, dose: 25.0 mg/kg/injection, schedule: Q01DX009 (ip), vehicle: saline with Tween-80) 95 % of control; (endpoint: median survival time, dose: 50.0 mg/kg/injection, schedule: Q01DX009 (ip), vehicle: Klucel (hydroxypropylcellulose) (HPC)) 104 % of control and 109 % of control; (endpoint: median survival time, dose: 50.0 mg/kg/injection, schedule: Q01DX009 (ip), vehicle: saline with Tween-80) 104 % of control. Besides, under “endpoint: median survival time, dose: 100.0 mg/kg/injection, schedule: Q01DX009 (ip), vehicle: Klucel (hydroxypropylcellulose) (HPC)”, the T/C is 119 % of control and 116 % of control.
`CC[C@H]1CN2CCc3cc(OC)c(OC)cc3[C@@H]2C[C@@H]1C[C@H]1NCCc2cc(OC)c(OC)cc21`: the T/C by setting is: (endpoint: median survival time, dose: 2.0 mg/kg/injection, schedule: Q01DX005 (ip), vehicle: Klucel (hydroxypropylcellulose) (HPC)) 98 % of control; (endpoint: median survival time, dose: 4.0 mg/kg/injection, schedule: Q01DX005 (ip), vehicle: Klucel (hydroxypropylcellulose) (HPC)) 101 % of control; (endpoint: median survival time, dose: 8.0 mg/kg/injection, schedule: Q01DX005 (ip), vehicle: Klucel (hydroxypropylcellulose) (HPC)) 115 % of control.
In the case of `COC1OC(CO)C(O)C(NC(=O)N(C)N=O)C1O` (stereo not given), the T/C is, setting by setting: under setting [7], 102 % of control; under setting [8], 107 % of control; under setting [9], 111 % of control; under setting [10], 111 % of control; under setting [11], 116 % of control; (endpoint: median survival time, dose: 16.0 mg/kg/injection, schedule: Q01DX009 (ip), vehicle: saline) 102 % of control.
As to `CCCCN(C)N=Nc1ccc([N+](=O)[O-])cc1C(N)=O`, the T/C was 112 % of control (endpoint: mean survival time, dose: 100.0 mg/kg/injection, schedule: Q01DX009 (ip), vehicle: saline with Tween-80); 122 % of control (endpoint: mean survival time, dose: 200.0 mg/kg/injection, schedule: Q01DX009 (ip), vehicle: saline with Tween-80); 100 % of control (endpoint: mean survival time, dose: 400.0 mg/kg/injection, schedule: Q01DX009 (ip), vehicle: saline with Tween-80); 89 % of control (endpoint: mean survival time, dose: 600.0 mg/kg/injection, schedule: Q01DX009 (ip), vehicle: saline with Tween-80); 102 % of control (endpoint: median survival time, dose: 32.0 mg/kg/injection, schedule: Q01DX005 (ip), vehicle: saline with Tween-80); 108 % of control under setting [5]. In addition, the T/C runs as follows: under setting [6], 110 % of control; (endpoint: median survival time, dose: 256.0 mg/kg/injection, schedule: Q01DX005 (ip), vehicle: saline with Tween-80) 103 % of control.
With `O=C(O)CC(NC(=O)CP(=O)(O)O)C(=O)O` (stereo not given), the T/C by setting is: (endpoint: mean survival time, dose: 200.0 mg/kg/injection, schedule: Q01DX009 (ip), vehicle: saline) 100 % of control; (endpoint: mean survival time, dose: 225.0 mg/kg/injection, schedule: Q01DX009 (ip), vehicle: saline) 108 % of control; (endpoint: mean survival time, dose: 250.0 mg/kg/injection, schedule: Q01DX009 (ip), vehicle: saline) 101 % of control.
For `COc1cc([C@@H]2c3cc4c(cc3[C@@H](OC3OC5CO[C@@H](c6cccs6)OC5C(O)C3O)[C@H]3COC(=O)[C@H]23)OCO4)cc(OC)c1O` (stereo not given in full), the T/C by setting is: (endpoint: median survival time, dose: 0.25 mg/kg/injection, schedule: Q01DX009 (ip), vehicle: saline) 101 % of control and 108 % of control; under setting [7], 108 % of control and 111 % of control; under setting [8], 111 % of control and 116 % of control; under setting [9], 124 % of control and 114 % of control; under setting [10], 122 % of control and 104 % of control; under setting [11], 88 % of control.
